From patent publication US12558342B2, “2-[2-({12,12-dimethyl-4-oxo-6-phenyl-3,11-dioxatricyclo[8.4.0.0,2,7]tetradeca-1,5,7,9-tetraen-8-yl}oxy)acetamido]benzamide and derivatives as inhibitor of clock:bmal1 interaction for the treatment of circadian rhythm diseases and disorders” (KOC UNIVERSITESI, priority 2019, dated 2026)

Columns and labels:
[1] = target: T1, CLOCK and BMAL1 interaction (Homo sapiens, UniProt O15516); assay: Co-immunoprecipitation of FLAG-CLOCK and BMAL1; type: biochemical; conditions: 10 μM and 40 μM
T1 construct: expressed in transfected cells; host or cells: HEK 293T
T1 sequence (O15516 1-846): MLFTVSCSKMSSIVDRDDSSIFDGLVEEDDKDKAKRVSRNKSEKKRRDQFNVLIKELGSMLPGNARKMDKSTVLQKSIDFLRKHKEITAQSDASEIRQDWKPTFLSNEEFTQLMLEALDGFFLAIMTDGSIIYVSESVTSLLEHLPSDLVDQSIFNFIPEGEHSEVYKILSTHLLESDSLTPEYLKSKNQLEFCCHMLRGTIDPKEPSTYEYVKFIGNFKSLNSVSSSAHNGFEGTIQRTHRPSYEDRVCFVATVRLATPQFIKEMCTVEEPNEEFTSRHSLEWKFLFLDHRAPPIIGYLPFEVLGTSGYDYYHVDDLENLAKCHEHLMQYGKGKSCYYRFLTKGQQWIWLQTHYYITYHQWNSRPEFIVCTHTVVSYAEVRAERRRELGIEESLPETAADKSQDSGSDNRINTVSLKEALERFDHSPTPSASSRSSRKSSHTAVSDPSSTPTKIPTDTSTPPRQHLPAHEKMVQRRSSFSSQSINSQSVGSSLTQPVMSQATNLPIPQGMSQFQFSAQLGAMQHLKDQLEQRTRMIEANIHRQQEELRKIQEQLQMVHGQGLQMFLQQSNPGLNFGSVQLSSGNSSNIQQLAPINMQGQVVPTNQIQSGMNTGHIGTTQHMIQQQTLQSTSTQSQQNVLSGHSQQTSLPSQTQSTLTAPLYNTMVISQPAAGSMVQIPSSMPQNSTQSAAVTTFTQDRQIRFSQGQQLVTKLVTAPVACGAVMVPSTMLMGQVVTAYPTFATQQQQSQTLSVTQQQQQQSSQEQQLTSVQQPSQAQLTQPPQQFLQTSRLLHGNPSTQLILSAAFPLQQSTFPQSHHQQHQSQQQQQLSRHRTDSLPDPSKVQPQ
Protocol: HEK 293T cells co-expressing wild type or F80A-K220A mutant FLAG-tagged Clock together with tag-free Bmal1 were lysed with ice-cold lysis buffer (50 mM Tris-HCl PH 7.7, 150 mM NaCl, 0.1% Triton X-100, 1 mM PMSF and protease inhibitor cocktail) and centrifuged at 15000×g at 4° C. for 20 minutes. DMSO and different concentrations of CLK8 were added to the whole cell lysate. The mixtures were incubated with anti-FLAG M2 affinity gel (Sigma-Aldrich) at 4° C. overnight with continuous mixing. After three wash steps, bound proteins were eluted with Laemmli buffer heated at 95° C. for 7 minutes. CLOCK and BMAL1 were detected by monoclonal anti-FLAG M2 antibody (Sigma-Aldrich) and anti-BMAL1 (Santa Cruz Biotechnology) respectively. The amount of co-precipitated BMAL1 was normalized with the amount of precipitated CLOCK.
HEK 293T cells co-expressing wild type or F80A-K220A mutant FLAG-tagged Clock together with tag-free Bmal1 were lysed with ice-cold lysis buffer (50 mM Tris-HCl pH 7.7, 150 mM NaCl, 0.1% Triton X-100, 1 mM PMSF and protease inhibitor cocktail) and centrifuged at 15000×g at 4° C. for 20 minutes. DMSO and different concentrations of CLK8 were added to the whole cell lysate. […] CLOCK and BMAL1 were detected by monoclonal anti-FLAG M2 antibody (Sigma-Aldrich) and anti-BMAL1 (Santa Cruz Biotechnology) respectively. […]

[2] = target: T2, CLOCK:BMAL1 interaction (Homo sapiens, UniProt O15516); assay: Mammalian two-hybrid assay; type: cell-based; conditions: HEK293T
T2 construct: expressed in transfected cells; host or cells: HEK293T
T2 sequence (O15516 1-846): T1 sequence (O15516 1-846)
Protocol: The procedure was carried out according to Checkmate-Promega's protocol. Samples were examined in triplicate sets in a 96-well plate. HEK293T cells with the density of 4×10^4 cell/well were transfected with 50 ng of pG5-luc, 50 ng of pACT-mBmal1, 50 ng of pBind-hsClock plasmids and 0.5 ng of pRL-TK for normalization. Following the transfection, the cells were treated with different concentrations of small molecules. Control cells were treated with 0.5% vehicle (DMSO).
Ultimately, luminescence was measured using Dual-Luciferase Reporter Assay System (Promega) with Fluoroskan Ascent FL plate reader.

CC1(C)CCc2c(cc(OCC(=O)Nc3ccccc3C(N)=O)c3c(-c4ccccc4)cc(=O)oc23)O1 [CLK8, 2-[2-({12,12-dimethyl-4-oxo-6-phenyl-3,11-dioxatricyclo [8.4.0.0,2,7]tetradeca-1,5,7,9-tetraen-8-yl}oxy)acetamido] benzamide]
amount of co-precipitated BMAL1 [1]: reduced as the concentration of CLK8 increased
interaction between CLOCK and BMAL1 (two-hybrid) [2]: reduces the interaction between CLOCK and BMAL1
